Assay results as given in US20190212325A1, “AN EX VIVO METHOD FOR TESTING CELLULAR RESPONSEIVENESS OF PRIMARY CELL POPULATIONS TO A DRUG OR COMBINATION OF DRUGS” (VIVIA BIOTECH, S.L, priority 2015, published 2019).

Columns and labels:
[1] = tested on: primary CLL cells; assay: Ex vivo viability (Annexin V) and proliferation (CFDA) of primary CLL cells with AE, HS-5 stroma and CpG+IL-2, drug dose response; assay type: cell-based; details: 96 hours, 1.6% AE, 10% Human Serum, HS-5 100:1, CpG ODN + IL-2, 8 concentrations
[2] = tested on: primary MM cells; assay: Ex vivo viability (Annexin V) and proliferation (CFDA) of primary MM cells in whole BM with AE (autologous plasma), lenalidomide dose response; assay type: cell-based, human; details: 96 hours, 20% autologous plasma (AE)
Description: Patient whole BM was obtained and prepared as indicated above for each sample type. The Vybrant® CFDA SE Cell Tracer Kit (Molecular Probes) was used to measure cell proliferation as it has been disclosed in Example 3. After the CFDA protocol, all samples were resuspented in Culture Medium+Zell Shield (Labclinics)+L-Glu (Lonza)+20% FBS. Condition A samples stayed as is, condition B samples had different concentrations of autologous MM plasma plus RBCs added and condition C samples received 20% autologous plasma. The final cell concentration ranged from 20 cells/μl to 70 cells/μl. Alternatively, the autologous plasma can be replaced with a pool of three MM plasmas.
The CFDA labeled plasmatic cells were dispensed into 96-well plates (60 μl/well) and incubated at 37° C. with 5% CO2 during 72 or 96 hours. For analysis, MM cells (assessed by monoclonal antibodies) were tested for both viability (Annexin-V staining) and proliferation (CFDA).
After 96 hours of culture, the CFDA staining in conjunction with the immunophenotyping allowed for the analysis of both viability (Annexin-V negative) and proliferation (CFDA peaks) of the plasmatic cells, following the previously described methods using Vivia's ExviTech platform.
As the number of MM cells detected after 96 hours of incubation was too low in just a single well, a pooled well assay was performed, obtaining sample from 4 wells that have been treated in an identical manner. […] According to this, and based on the initial cell count, calculation of the sample volume was done for plating between 1000 and 4000 live pathological MM cells per well. During acquisition, sample from four wells was obtained for each treatment, thus obtaining a minimum of 4000 and a maximum of 16000 live plasmatic cells. The results of these experiments indicate that the use of patient's whole bone marrow plus 20% of autologous plasma, or a pool of at least 3 MM plasmas (Condition C from above) and the use of IMDM culture medium provided the best conditions to achieve better MM cells viability and higher proliferation rates (data not shown). Additionally, the presence of either of the two human stromal cell lines, HS27a and HS5, appeared to have a negative effect on both viability and proliferation.
Some drugs used to treat tumor cells preferentially target cells that are actively proliferating, acting as anti-proliferative agents. An example of this is the use of lenalidomide to treat patients diagnosed with MM. The efficacy of lenalidomide is difficult to assess in ex vivo assays against MM primary tumor cells, as these cells have very low levels of proliferation under the conditions that have traditionally been used. In this example, we tested BM samples from 10 patients diagnosed with MM in our ex vivo assay. AE (plasma only) was added to the culture medium to increase levels of proliferation and lenalidomide was tested across a concentration range of 0.03 to 30 μM.
Whole BM from 10 MM patients was cultured in IMDM medium supplemented with 1% antibiotic, 1% L-Glutamine plus an additional 20% of autologous plasma (AE), for 96 hours. Samples were processed and analyzed as outlined in Example 12. MM cell viability (Annexin V) and proliferation (CFDA) were tested against 4 concentrations of Lenalidomide.

SMILES: CC[C@H](Nc1ncnc2[nH]cnc12)c1nc2cccc(F)c2c(=O)n1-c1ccccc1 [Idelalisib]
- effect on Non-Proliferative (NP) Live Tumor Cells (survival index) ([1]; NP fraction): little effect
- inhibition of the proliferation, Proliferative (PR) cell fraction (survival index) ([1]; PR fraction): potent inhibition of the proliferation is observed in the low nM range

SMILES: Nc1cccc2c1CN(C1CCC(=O)NC1=O)C2=O (centres unmarked) [lenalidomide]
- effect on NP MM cells (survival index) ([2]; sample 1, 0.03 to 30 μM): no effect
- effect on PR MM cells (survival index) ([2]; sample 1, 0.03 to 30 μM): no effect
- PR cells eliminated ([2]; sample 3): about 60%
- NP cells eliminated ([2]; sample 3, at a higher concentration): about 20%
- potency against the PR population ([2]; sample 3, low concentration): very potent
- effect in the NP population ([2]; sample 6): small effect
- effect on the PR population ([2]; sample 6): no effect
- effect against the PR cells ([2]; sample 7): very potent and effective
- effect on the NP cells ([2]; sample 7, at a higher concentration): effects the NP cells
